Values belong to the molecule of their own block, whether it stands above or below them.
Assays:
[1] = target: Glycogen synthase kinase-3 beta (Homo sapiens, UniProt P49841); assay: Inhibition of GSK3beta (unknown origin)
CDK2/Cyclin A1 = CDK2/Cyclin A1 (Homo sapiens, UniProt P24941); assay: Inhibition of CDK2/cyclin A (unknown origin); assay type: protein-complex assay
[2] = Selectivity ratio of IC50 for CDK5 (unknown origin) to IC50 for CDK2 (unknown origin)
[3] = target: Cyclin-dependent kinase 5/CDK5 activator 1 (Homo sapiens, UniProt Q00535); assay: Inhibition of CDK5/p25 (unknown origin); assay type: protein-complex assay
Cyclin-dependent kinase 5/CDK5 activator 1, sequence (Q00535 whole entry): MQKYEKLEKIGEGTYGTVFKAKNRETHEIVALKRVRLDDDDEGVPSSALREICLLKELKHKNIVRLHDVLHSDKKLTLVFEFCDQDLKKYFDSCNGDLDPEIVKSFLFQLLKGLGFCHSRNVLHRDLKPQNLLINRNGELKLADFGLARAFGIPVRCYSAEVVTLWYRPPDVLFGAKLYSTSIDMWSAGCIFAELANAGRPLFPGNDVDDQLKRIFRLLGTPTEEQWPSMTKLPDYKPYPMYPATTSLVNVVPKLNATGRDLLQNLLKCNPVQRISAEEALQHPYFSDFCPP
Cyclin-dependent kinase 5/CDK5 activator 1, sequence (Q15078 whole entry, further chain): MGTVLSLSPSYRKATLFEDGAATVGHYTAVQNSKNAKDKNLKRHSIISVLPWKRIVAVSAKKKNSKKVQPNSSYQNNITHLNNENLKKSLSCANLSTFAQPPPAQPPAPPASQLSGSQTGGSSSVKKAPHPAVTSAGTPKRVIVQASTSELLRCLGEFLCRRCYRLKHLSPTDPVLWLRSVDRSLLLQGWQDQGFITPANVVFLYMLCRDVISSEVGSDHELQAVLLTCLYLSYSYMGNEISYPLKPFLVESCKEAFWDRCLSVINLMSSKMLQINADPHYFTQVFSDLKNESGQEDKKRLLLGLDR

[4] = Selectivity index, ratio of IC50 for CDK2/cyclin A (unknown origin) to IC50 for CDK5/p25 (unknown origin)
[5] = target: Cyclin-dependent kinase 5 (Homo sapiens) (UniProt Q00535); assay: Binding affinity to CDK5 (unknown origin) assessed as change in gibbs free energy
Cyclin-dependent kinase 5 (Homo sapiens), sequence (Q00535 whole entry, looked up): as the sequence (Q00535 whole entry) above

SH-SY5Y = assay: Neuroprotective activity against amyloid beta (25 to 35)-induced cell damage in human SH-SY5Y cells assessed as survival rate at 10 uM measured after 72 hrs by MTT assay; assay type: functional; details: read-out: Survival
[6] = target: Cyclin-dependent kinase 5 (Homo sapiens) (UniProt Q00535); assay: Inhibition of CDK5 (unknown origin) at 10 uM relative to control
[7] = target: Dual specificity tyrosine-phosphorylation-regulated kinase 1A (Homo sapiens) (UniProt Q13627); assay: Inhibition of DYRK1A (unknown origin) at 10 uM relative to control

Glycogen synthase kinase-3 beta, sequence (P49841 whole entry): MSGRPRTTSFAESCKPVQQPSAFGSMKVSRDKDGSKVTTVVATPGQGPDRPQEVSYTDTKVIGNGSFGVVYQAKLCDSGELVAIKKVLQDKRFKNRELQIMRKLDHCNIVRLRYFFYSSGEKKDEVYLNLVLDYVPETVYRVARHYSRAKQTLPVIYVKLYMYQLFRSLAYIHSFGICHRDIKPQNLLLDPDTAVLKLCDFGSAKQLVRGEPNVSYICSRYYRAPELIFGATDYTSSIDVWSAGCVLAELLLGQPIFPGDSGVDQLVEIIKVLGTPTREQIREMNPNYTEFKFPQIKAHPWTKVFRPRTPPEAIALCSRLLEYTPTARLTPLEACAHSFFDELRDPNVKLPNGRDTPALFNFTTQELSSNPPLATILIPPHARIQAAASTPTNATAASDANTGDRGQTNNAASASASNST

- IC50 [1]: 22 nM
Structure (SMILES): O=C(Nc1cc(Br)ccn1)Nc1cccc2c1C1CCCCN1C2=O (centres undefined)

- IC50 (CDK2/Cyclin A1): > 100000 nM
- Ratio IC50 [2]: 100
Structure (SMILES): O=C(NOc1ccccc1)Nc1csc(Cc2c(Cl)cccc2Cl)n1

Structure (SMILES): CN1CCC(N(CC(=O)O)c2ccc3cnc(Nc4ccc(-n5ccc(CO)n5)cc4F)cc3n2)CC1
- IC50 (CDK2/Cyclin A1): 444 nM
- Ratio IC50 [2]: 100

Structure (SMILES): C[C@]12CC[C@H]3[C@@H](CCC4=CC(=O)CC[C@@]43C)[C@@H]1CC[C@@H]2C(=O)COS(=O)(=O)c1ccc(Br)cc1
- IC50 [3]: 6000 nM

- Ratio IC50 [4]: 10
Structure (SMILES): O=C(Nc1csc(Cc2c(Cl)cccc2Cl)n1)NN1CCOCC1

- IC50 [3]: 9 nM
- IC50 (CDK2/Cyclin A1): 63 nM
- deltaG [5]: -23 kcal/mol
Structure (SMILES): COc1ccc(CC(=O)Cc2ccn([C@H]3C[C@@H](C(N)=O)C3)c2)cc1

Structure (SMILES): O=C(C1=C(O)C(=O)N(CCc2c[nH]c3ccccc23)C1c1cccnc1)c1ccc(Cl)cc1 (centres undefined)
- viability at 10 µM (SH-SY5Y): 82.8%

Structure (SMILES): NC(=O)CN1C(=O)C(O)(CC(=O)c2ccc3ccccc3c2)c2ccccc21 (centres undefined)
- viability at 10 µM (SH-SY5Y): 82.6%

Structure (SMILES): CN1C(=O)COc2ccc(-c3nn(Cc4ccccc4)c(=O)c4ccccc34)cc21
- viability at 10 µM (SH-SY5Y): 80.1%

Structure (SMILES): O=c1oc2cc(O)cc(O)c2c2ccccc12
- inhibition [6]: 62%
- inhibition [7]: 92.2%

Structure (SMILES): COc1ccc(OCC(=O)Nc2cccc(-c3nc4ccccc4c(=O)o3)c2)cc1
- viability at 10 µM (SH-SY5Y): 82.9%

Structure (SMILES): C[C@@]12CCC[C@H]1[C@@H]1CC[C@H]3C[C@H](N)CC[C@]3(C)[C@H]1CC2
- IC50 [3]: 6000 nM

- inhibition [6]: 98%
- inhibition [7]: 95%
Structure (SMILES): NS(=O)(=O)c1cccc(Nc2ncc3c(n2)CCCC3)c1

Source: ChEMBL document CHEMBL5338803, “Novel Medicinal Chemistry Strategies Targeting CDK5 for Drug Discovery” (J Med Chem, 2023)
